Biological target: T1, Mucosa-associated lymphoid tissue lymphoma translocation protein 1 (Homo sapiens, UniProt Q9UDY8)
T1 sequence (Q9UDY8 whole entry): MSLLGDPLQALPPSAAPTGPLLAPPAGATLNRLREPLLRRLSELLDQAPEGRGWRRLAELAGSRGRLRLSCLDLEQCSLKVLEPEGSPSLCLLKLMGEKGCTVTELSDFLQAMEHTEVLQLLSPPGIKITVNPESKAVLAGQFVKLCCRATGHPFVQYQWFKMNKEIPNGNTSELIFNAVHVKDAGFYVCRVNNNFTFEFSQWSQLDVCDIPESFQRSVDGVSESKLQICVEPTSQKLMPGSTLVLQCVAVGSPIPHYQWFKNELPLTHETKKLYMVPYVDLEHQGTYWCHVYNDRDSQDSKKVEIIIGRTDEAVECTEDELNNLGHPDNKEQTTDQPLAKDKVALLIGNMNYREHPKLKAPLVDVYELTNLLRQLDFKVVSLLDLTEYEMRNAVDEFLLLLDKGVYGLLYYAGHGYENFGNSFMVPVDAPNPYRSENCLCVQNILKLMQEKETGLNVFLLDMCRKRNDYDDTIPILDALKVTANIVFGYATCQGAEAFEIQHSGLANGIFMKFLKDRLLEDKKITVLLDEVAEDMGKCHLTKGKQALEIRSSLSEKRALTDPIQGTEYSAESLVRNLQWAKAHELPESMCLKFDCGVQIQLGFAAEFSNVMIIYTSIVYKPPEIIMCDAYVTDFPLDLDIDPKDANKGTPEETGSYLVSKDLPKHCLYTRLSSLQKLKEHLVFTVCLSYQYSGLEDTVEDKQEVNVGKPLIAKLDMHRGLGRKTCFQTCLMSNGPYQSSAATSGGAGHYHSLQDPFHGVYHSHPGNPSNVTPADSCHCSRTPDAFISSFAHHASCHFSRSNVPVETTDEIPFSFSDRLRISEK
Assay: Inhibition of Protease Activity Assay: Full-length cDNA of human MALT1 gene (GenBank accession No: AB026118.1) amplified by PCR was inserted in flame to a SalI site located downstream of GST gene in a pGEX6P3 vector (GE Healthcare Japan Corp.) to prepare a vector (hereinafter, referred to as a pGEX6P3-MALT1 vector). Subsequently, E. coli for protein expression (BL21-RIL-codon plus-DE3, Agilent Technologies, Inc.) was transformed with the pGEX6P3-MALT1 vector and then analyzed by ampicillin resistance screening and colony PCR to obtain an E. coli strain expressing recombinant GST fusion MALT1. Protein expression was induced with isopropyl-(3-thiogalactopyranoside. After the expression induction, E. coli precipitates were recovered by centrifugation from the E. coli culture solution, and the E. coli precipitates were homogenized and then centrifuged to obtain a supernatant. The supernatant was purified using GSTrap FF column (GE Healthcare Japan Corp.) to obtain recombinant GST fusion MALT1.B) Evaluation of Inhibition of Protease Activity of MALT1:To 89 μL of an enzyme solution ([…] GST fusion MALT1, 50 mmol/L MES, 150 mmol/L NaCl, 10% sucrose, 0.1% CHAPS, 10 mmol/L dithiothreitol, and 1 mol/L tri-ammonium citrate) per specimen, 1 μL of a test compound (DMSO-diluted solution) of each concentration was added to prepare a mixed solution. […]

- IC50: 572 nM
SMILES: CCCC(=O)/N=C(\N)NCc1cnc(-c2ccc(Cl)cc2)c(-c2ccc(Cl)cc2)c1
